Measured values taken from patent US20260055381A1, “PROTEIN, POLYNUCLEOTIDE, EXPRESSION VECTOR, TRANSFORMANT, PLASMALOGEN-CONTAINING COMPOSITION, AND METHOD FOR PRODUCING PLASMALOGEN” (INSTITUTE OF RHEOLOGICAL FUNCTION OF FOOD CO., LTD., priority 2022, published 2026).

Assay: Production of plasmalogen in suis plsA-transformed E. coli (phospholipid by HPLC-ELSD, aldehyde after acid hydrolysis)
Settings: in aerobically grown E. coli
Method: After thawing the bacterial cells, the total weight of the cells was measured. After 1 mL of water was added to and mixed with the bacterial cells, 3.75 mL of chloroform/methanol (1:2, v/v) was added thereto, and the resulting mixture was mixed. The mixture was subjected to sonication for 10 minutes, and then left to stand at room temperature for 30 minutes. After adding 1.25 mL chloroform to the mixture, 1.25 mL water was added thereto. After performing centrifugation, the chloroform layer was transferred to a glass tube, and the remaining aqueous layer was subjected to re-extraction with 2 mL of chloroform. The resulting combined chloroform layer was dried under nitrogen gas, and resuspended in hexane/isopropanol (3:2, v/v) to a bacterial cell concentration of 120 mg/mL, followed by filtration through a 0.45-μm filter. After injecting 10 μL of the bacterial cell suspension into high-performance liquid chromatography (HPLC), detection was performed by an evaporative light-scattering detector (ELSD).
Lipid standard solutions with different concentrations were also detected by HPLC-ELSD. A calibration curve was prepared based on the peak area at each concentration, and the amount of phospholipids was calculated from the area ratio of the peak corresponding to phospholipids obtained from the E. coli with a retention time of 10 to 20 minutes. […]

For “suis PlsA protein: PlsA protein of 1639 amino acids of SEQ ID NO:2, from B. longum suis subspecies”, which plasmalogen synthesis activity is on record?
Its plasmalogen synthesis activity is “shown to have a plasmalogen synthesis activity”.
